Measured values as given in patent publication US20230413811A1 (priority 2020, published 2023).
Where two headings read alike, the source gives them in different places.

Legend:
[1] = system: Phytophthora infestans strain Pi96; type: in vivo
[2] = Water solubility at different pH values; type: physicochemical; conditions: for solubility: water
Text: The results are compiled in the table here below:

[3] = 0.1 M carbonate buffer in water, aqueous buffer, pH 7, buffer 0.1M Carbonate
[4] = 0.1 M citrate buffer in water, aqueous buffer, pH 4, buffer 0.1M Citrate
[5] = 0.1 M glycine buffer in water, aqueous buffer, pH 10, buffer 0.1M Glycine

CCCCCCCCCCCCCCCCCC[S+](C)C.[Cl-] [ODS-Cl, octadecyl dimethyl sulfonium chloride]
Disease Severity Index (%) ([1]; 10 ppm, 3 dpi): 10.3% | Disease Severity Index (%) ([1]; 10 ppm, 5 dpi): 18.3% | Disease Severity Index (%) ([1]; 10 ppm, 7 dpi): 39.7% | Disease Severity Index (%) ([1]; 10 ppm, 10 dpi): 97.8% | Fungicide efficacy (%) at 10 dpi ([1]; 10 ppm, 10 dpi): 0.0% | Disease Severity Index (%) ([1]; 50 ppm, 3 dpi): 8.7% | Disease Severity Index (%) ([1]; 50 ppm, 5 dpi): 15.6% | Disease Severity Index (%) ([1]; 50 ppm, 7 dpi): 40.0% | Disease Severity Index (%) ([1]; 50 ppm, 10 dpi): 89.4% | Fungicide efficacy (%) at 10 dpi ([1]; 50 ppm, 10 dpi): 0.0% | Disease Severity Index (%) ([1]; 100 ppm, 3 dpi): 5.5% | Disease Severity Index (%) ([1]; 100 ppm, 5 dpi): 11.1% | Disease Severity Index (%) ([1]; 100 ppm, 7 dpi): 27.8% | Disease Severity Index (%) ([1]; 100 ppm, 10 dpi): 71.8% | Fungicide efficacy (%) at 10 dpi ([1]; 100 ppm, 10 dpi): 12.5% | Disease Severity Index (%) ([1]; 500 ppm, 3 dpi): 0.0% | Disease Severity Index (%) ([1]; 500 ppm, 5 dpi): 0.0% | Disease Severity Index (%) ([1]; 500 ppm, 7 dpi): 0.0% | Disease Severity Index (%) ([1]; 500 ppm, 10 dpi): 0.0% | Fungicide efficacy (%) at 10 dpi ([1]; 500 ppm, 10 dpi): 100.0% | Disease Severity Index (%) ([1]; 1000 ppm, 3 dpi): 0.0% | Disease Severity Index (%) ([1]; 1000 ppm, 5 dpi): 0.0% | Disease Severity Index (%) ([1]; 1000 ppm, 7 dpi): 0.0% | Disease Severity Index (%) ([1]; 1000 ppm, 10 dpi): 0.0% | Fungicide efficacy (%) at 10 dpi ([1]; 1000 ppm, 10 dpi): 100.0% | control of the disease (late blight) ([1]; 1000 ppm, preventive treatment): full control | dose from which efficient to protect potato leaves against late blight ([1]; preventive treatment, detached potato leaves): ≥ 100 ppm | solubility [2, 3]: 280 µg/mL | solubility [2, 4]: 1320 µg/mL | solubility [2, 5]: 940 µg/mL | solubility in water compared with octadecyl dimethyl sulfonium iodide ([2]; comparison chloride vs iodide): higher solubility in water | pH at which the water solubility has a minimum ([2]; solubility increases below and above this pH): ~7.0 | solubility ([2]; pH 2.2, aqueous buffer): 1650 µg/mL

CCCCCCCCCCCCCCCCCC[S+](C)C.[I-] [ODS-I, octadecyl dimethyl sulfonium iodide, reference compound]
solubility [2, 3]: 80 µg/mL | solubility [2, 4]: 290 µg/mL | solubility [2, 5]: 30 µg/mL | solubility ([2]; pH 5.5, aqueous buffer): 120 µg/mL
